Source: the C3SDB collision cross section collection

details: [M+H]+; instrument: TW; calibrated with polyalanine and drug standards

SMILES | collision cross section (N2)
COc1cc(OC)cc(OC)c1 [1,3,5-TRIMETHOXYBENZENE] | 130.6 Å²
CC1(C)C2CC(=O)[C@]3(C)C(CC[C@@]4(C)[C@H](c5ccoc5)OC(=O)C5OC543)[C@@]2(C)[C@@H](O)C[C@H]1O (stereo partly drawn) [1,3-DIDEACETYL-7-DEACETOXY-7-OXOKHIVORIN] | 200.2 Å²
COc1cc(O)c(C(=O)/C=C/c2ccc(OC)c(O)c2)c(OC)c1 [2',3-DIHYDROXY-4,4',6'-TRIMETHOXYCHALCONE] | 177.1 Å²
COc1ccc(/C=C/C(=O)c2ccc(O)cc2O)cc1 [2',4'-DIHYDROXY-4-METHOXYCHALCONE] | 162.2 Å²
O=C(/C=C/c1ccccc1)c1ccc(O[C@@H]2O[C@H](CO)[C@@H](O)[C@H](O)[C@H]2O)cc1O [2',4'-DIHYDROXYCHALCONE 4'-GLUCOSIDE] | 200.6 Å²
O=C(/C=C/c1ccc(O)cc1)c1ccccc1O [2',4-DIHYDROXYCHALCONE] | 153 Å²
COc1ccc(/C=C/C(=O)c2cc(O)ccc2O)cc1 [2',5'-DIHYDROXY-4-METHOXYCHALCONE] | 162.1 Å²
COc1ccc(-c2coc3cc(O)ccc3c2=O)c(OC)c1 [2'-METHOXYFORMONETIN] | 164.6 Å²
COc1ccc(C(=O)c2ccc(O)cc2)c(O)c1O [2,3,4'-TRIHYDROXY-4-METHOXYBENZOPHENONE] | 152.9 Å²
CCOc1ccc(C(=O)c2ccc(O)c(O)c2O)cc1 [2,3,4-TRIHYDROXY-4'-ETHOXYBENZOPHENONE] | 160.4 Å²
COc1cc(O)c(C)c(O)c1 [2,6-DIHYDROXY-4-METHOXYTOLUENE] | 127.1 Å²
COc1cc(OC)c2c(=O)c(-c3ccccc3)c(C)oc2c1OC [2-METHYL-5,7,8-TRIMETHOXYISOFLAVONE] | 173.6 Å²
COc1ccc(-c2oc3cc(OC)c(OC)c(OC)c3c(=O)c2OC)cc1 [3,4',5,6,7-PENTAMETHOXYFLAVONE] | 181.9 Å²
COc1ccc(-c2oc3ccccc3c(=O)c2OC)cc1 [3,4'-DIMETHOXYFLAVONE] | 159.1 Å²
COc1ccc2oc(-c3ccccc3)c(OC)c(=O)c2c1 [3,6-DIMETHOXYFLAVONE] | 159.9 Å²
CC(=O)O[C@H]1C[C@@H](O)C(C)(C)C2C[C@@H](OC(C)=O)[C@]3(C)C(CC[C@@]4(C)[C@H](c5ccoc5)OC(=O)C5OC543)[C@]21C (stereo partly drawn) [3-DEACETYLKHIVORIN] | 215.9 Å²
CC(=O)O[C@H]1CC[C@@]2(C)C(C[C@@H](OC(C)=O)[C@@]3(C)C4=CC(=O)O[C@@H](c5ccoc5)[C@]4(C)CCC23)C1(C)C (stereo partly drawn) [3-DEOXO-3beta-ACETOXYDEOXYDIHYDROGEDUNIN] | 219.7 Å²
C=C1[C@H]2CC[C@@]3(C)[C@H](c4ccoc4)OC(=O)C[C@]13O[C@H]1C[C@H](O)C(C)(C)[C@H](CC(=O)OC)[C@]12C [3-DEOXY-3beta-HYDROXYANGOLENSIC ACID METHYL ESTER] | 204.1 Å²
COc1cccc(O)c1O [3-METHOXYCATECHOL] | 124.7 Å²
CC1(C)CC23C(=O)CCC(O)C2(C)CCC13 (stereo not drawn) [3-NOR-3-OXOPANASINSAN-6-OL] | 146.1 Å²
S=c1ccss1 [3H-1,2-DITHIOLE-3-THIONE] | 120.4 Å²

same assay, conditions: [M+Na]+; instrument: TW; calibrated with polyalanine and drug standards

SMILES | collision cross section (N2)
CC(C)CC(NC(=O)OCC1c2ccccc2-c2ccccc21)C(=O)O (stereo in doubt) [N- (9-FLUORENYLMETHOXYCARBONYL)-L-LEUCINE] | 183.3 Å²
COC(=O)C[C@H]1C(C)(C)[C@@H](O)[C@@H]2CC3=C4CC(O)O[C@@H](c5ccoc5)[C@]4(C)CCC3[C@@]1(C)C2=O (stereo partly drawn) [3,16-DIDEOXYMEXICANOLIDE-3beta-DIOL] | 202.8 Å²
